Laboratory results taken from US8455448B2, “Myostatin isoform” (Myostin Therapeutics Pty Ltd, priority 2004, dated 2013).
“Also recorded” adds a separate entry of the source.

System: murine C2C12 myoblasts
Assay: Proliferation assay of C2C12 murine myoblasts (methylene blue, absorbance 655 nm)
Type: cell-based
Protocol: (§1) Myoblasts were seeded in 96-well tissue culture plates (Nunc, Roskilde, Denmark) at a cell density of 1000 cells per well in 200 μl of Dulbecco's modified Eagle's medium (DMEM, Invitrogen, California) supplemented with foetal bovine serum (FBS, 10% v/v, Invitrogen), penicillin (1×10^5 IU/l, Sigma, St Louis, Mo., USA) and streptomycin (100 mg/l, Sigma) buffered with NaHCO3 containing phenol red (7.22 nmol/l) as a pH indicator, and incubated overnight at 37° C. with 5% CO2. Medium was replaced with DMEM 10% FBS test medium containing 0, 0.001, 0.003, 0.01, 0.03, 0.1, 0.3, 1, 3 or 10 μg/ml oMSV65 in a semi-random arrangement of eight replicates (n=8) for each test medium. Plates were incubated at 37° C. with 5% CO2 for 72 hours, and then the medium was removed. The wells were washed with 200 μl of phosphate buffered saline (PBS, Oxoid, UK) and fixed with 100 μl of 10% formaldehyde, 0.9% NaCl solution for at least one hour. The fixative was then removed and 100 μl of 1% methylene blue stain in 0.01 M borate buffer (pH 8.5) was added to each well and incubated for 30 min at room temperature. Excess stain was removed by four sequential washes in borate buffer. Methylene blue was eluted from the cells by the addition of 100 μl 1:1 (v/v) ethanol/0.1 HCl. The plates were gently shaken and the absorbance was measured at 655 nm using a microplate photometer (FIGS. 3a and 3b).
as §1, with “0,” for “0, 0.001, 0.003,”, “0.01,” for “0.01, 0.03,”, “1” for “0.3, 1, 3”, “oMSV47” for “oMSV65”, “60” for “72”, “(FIG. 9).” for “(FIGS. 3a and 3b).”
Myoblasts were seeded in 96-well tissue culture plates (Nunc, Roskilde, Denmark) at a cell density of 1000 cells per well in […] of Dulbecco's modified Eagle's medium (DMEM, Invitrogen, California) supplemented with foetal bovine serum (FBS, 10% v/v, Invitrogen), penicillin (1×10^5 IU/l, Sigma, St Louis, Mo., USA) and streptomycin (100 mg/l, Sigma) buffered with NaHCO3 containing phenol red (7.22 nmol/l) as a pH indicator, and incubated overnight at 37° C. with 5% CO2. Medium was replaced with DMEM 2.5% FBS test medium containing 0, 0.01, 0.1, 1, 5 or 10 μg/ml of the respective peptides in a semi-random arrangement of eight replicates (n=8) for each test medium. Plates were incubated at 37° C. with 5% CO2 for 80 hours, and then the medium was removed. The wells were washed with 200 μl of phosphate buffered saline (PBS, Oxoid, UK) and fixed with 100 μl of 10% formaldehyde, 0.9% NaCl solution for at least one hour. The fixative was then removed and 100 μl of 1% methylene blue stain in 0.01 M borate buffer (pH 8.5) was added to each well and incubated for 30 min at room temperature. Excess stain was removed by four sequential washes in borate buffer. Methylene blue was eluted from the cells by the addition of 100 μl 1:1 (v/v) ethanol/0.1 HCl. […]

[1] = roMSV47 1-10,000 ng/ml, 60 h, FIG. 10

Molecule: roMSV47: 47 amino acid C-terminal mature ovine MSV fragment (SEQ ID NO: 50), recombinant from E. coli (IIFLEVYIQFCSILGEAVFKRQSKSIHFCQNFKIIACLCNTAAFRMK; Ovis aries)
- proliferation of murine C2C12 myoblasts (0-10 μg/ml, DMEM 2.5% FBS, 80 h, FIG. 12A and FIG. 17): stimulate myoblast proliferation; also recorded: stimulate C2C12 cell growth in a dose dependent manner
- C2C12 myoblast proliferation [1]: stimulates murine C2C12 myoblast proliferation
- concentration of maximum proliferation enhancing activity [1]: 0.1 to 0.5 µg/mL
- increase in myoblast proliferation (roMSV47, 60 h, FIG. 10): more than 2 fold

B1: roMSV65: 65 amino acid C-terminal peptide of ovine MSV (SEQ ID NO: 49) expressed as recombinant protein in E. coli (protein)
chain: VHFYTPPYGQWIFHKERKIIFLEVYIQFCSILGEAVFKRQSKSIHFCQNFKIIACLCNTAAFRMK
modifications: Ovis aries
- myoblast cell growth (proliferation) (roMSV65 0 to 10 μg/ml, 72 h, FIG. 3A): stimulate myoblast cell growth in a dose dependent manner
- proliferation of murine C2C12 myoblasts (roMSV65 without myostatin, 48 h, FIG. 9): stimulated proliferation of murine myoblasts
